The numbers were not newly measured in patent publication US9511020B2, “Controlled release corticosteroid compositions and methods for the treatment of otic disorders” (priority 2008, dated 2016), which cites them from elsewhere.

The conditions of series [1]: for Glucocorticoid potency: relative potency.
The conditions of series [2]: relative potency.

Take `C[C@]12CCC(=O)C=C1CC[C@@H]1[C@@H]2[C@@H](O)C[C@@]2(C)[C@H]1CC[C@]2(O)C(=O)CO` [cortisol]: the Glucocorticoid potency in series [1] is reported as 1. Further, the Mineralocorticoid potency in series [2] is given as 0.054.

As to `C[C@]12C=CC(=O)C=C1CC[C@H]1[C@@H]3C[C@@H](O)[C@](O)(C(=O)CO)[C@@]3(C)C[C@H](O)[C@@]12F` [triamcinolone], the Glucocorticoid potency in series [1] is 0.35. The Mineralocorticoid potency in series [2] is 0.0002.

As for `C=C1C[C@H]2[C@@H]3CCC4=CC(=O)C=C[C@]4(C)[C@H]3[C@@H](O)C[C@]2(C)[C@@]1(O)C(=O)CO` [prednylidene], the Glucocorticoid potency in series [1] is 182. In addition, the Mineralocorticoid potency in series [2] is 0.0011.

On to `C[C@]12CCC(=O)C=C1CC[C@@H]1[C@@H]2[C@@H](O)C[C@]2(C=O)[C@@H](C(=O)CO)CC[C@@H]12` [aldosterone], for which the Glucocorticoid potency in series [1] is 0.07. In series [2], the Mineralocorticoid potency is 1.0.

For the compound `C[C@]12C=CC(=O)C=C1CC[C@@H]1[C@@H]2[C@@H](O)C[C@@]2(C)[C@H]1CC[C@]2(O)C(=O)CO` [prednisolone], the Glucocorticoid potency in series [1] was 1.7. In addition, the “potency relative to endogenous cortisol” value in series [1] (times the potency of endogenous cortisol) is listed as 4-5 times. Also, the Mineralocorticoid potency in series [2] was 0.013.
